Test results taken from patent US20240409536A1, “COMPOUNDS AND METHODS FOR MODULATING SPLICING” (REMIX THERAPEUTICS INC., priority 2021, published 2024).

Legend:
[1] = tested on: HiBiT-tagged HTT protein; assay: HiBiT protein abundance assay, HTT (K562 HiBiT knock-in cells); format: cell-based, human; details: 24 hours
How it was run: (§1)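 Luminescent readout of HiBiT-tagged endogenous protein after lysis, following 24 h compound exposure of knock-in K562 lines at 37 °C. Ten 3-fold concentrations from 10 μM final, DMSO ≤0.25%. Four-parameter logistic fit of normalized response gives concentration halving abundance (IC50).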

[2] = tested on: MYB mRNA; assay: Splicing RT-qPCR assay, MYB canonical (CJ) and alternative (AJ) junction mRNA; format: cell-based; details: Homo sapiens, A673 or K562 cells, 24 hours; for IC50: decrease in canonical junction mRNA; for AC50: increase in alternative junction mRNA
How it was run: (§2)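 Canonical and alternative junction mRNAs measured by cell-lysate one-step RT-qPCR, normalized to PPIA in A673 or GAPDH/GUSB in K562. Cells received compound for 24 h at 37 °C, 5% CO2, 11-point 3-fold series from 10 uM final top dose, DMSO at most 0.25%.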

[3] = tested on: HiBiT-tagged MYB protein; assay: HiBiT protein abundance assay, MYB (K562 HiBiT knock-in cells); format: cell-based, human; details: 24 hours
How it was run: as §1

[4] = tested on: HTT mRNA; assay: Splicing RT-qPCR assay, HTT canonical (CJ) and alternative (AJ) junction mRNA; format: cell-based; details: Homo sapiens, A673 or K562 cells, 24 hours; for IC50: decrease in canonical junction mRNA; for AC50: increase in alternative junction mRNA
How it was run: as §2

| Structure (SMILES) | IC50 [1] | IC50 [2] | AC50 [2] | IC50 [3] | IC50 [4] | AC50 [4] |
| --- | --- | --- | --- | --- | --- | --- |
| Cc1cn2cc(NC(=O)c3ccc(N4CC[C@@H](N(C)C)C4)c4nccnc34)cc(F)c2n1 [Compound 242, 8-[(3R)-3-(dimethylamino)pyrrolidin-1-yl]-N-{8-fluoro-2-methylimidazo[1,2-a]pyridin-6-yl}quinoxaline-5-carboxamide] | > 10 µM | 0.1 to 1 µM | 1 to 10 µM | 0.1 to 1 µM | > 10 µM | > 10 µM |
| COc1cnc2c(N3CC[C@@H](N(C)C)C3)ccc(C(=O)Nc3cc(F)c4nc(C)cn4c3)c2n1 [Compound 244, 8-[(3R)-3-(dimethylamino)pyrrolidin-1-yl]-N-{8-fluoro-2-methylimidazo[1,2-a]pyridin-6-yl}-3-methoxyquinoxaline-5-carboxamide] | 0.1 to 1 µM | < 0.1 µM | < 0.1 µM | < 0.1 µM | 0.1 to 1 µM | 0.1 to 1 µM |
| Cc1cn2cc(NC(=O)c3ccc([C@H]4CCNC4)c4nccnc34)cc(F)c2n1 [Compound 246] | 1 to 10 µM | 0.1 to 1 µM | 0.1 to 1 µM | 0.1 to 1 µM | 1 to 10 µM | 1 to 10 µM |
| Cc1cn2cc(NC(=O)c3ccc(N4CCN[C@@H](C(C)C)C4)c4nccnc34)cc(F)c2n1 [Compound 250, N-{8-fluoro-2-methylimidazo[1,2-a]pyridin-6-yl}-8-[(3S)-3-isopropylpiperazin-1-yl]quinoxaline-5-carboxamide] | > 10 µM | 0.1 to 1 µM | 1 to 10 µM | 0.1 to 1 µM | > 10 µM | > 10 µM |
| Cc1cn2cc(NC(=O)c3ccc(N4CCN[C@@H](C5CC5)C4)c4nccnc34)cc(F)c2n1 [Compound 252, 8-[(3S)-3-cyclopropylpiperazin-1-yl]-N-{8-fluoro-2-methylimidazo[1,2-a]pyridin-6-yl}quinoxaline-5-carboxamide] | 1 to 10 µM | 0.1 to 1 µM | 0.1 to 1 µM | 0.1 to 1 µM | > 10 µM | > 10 µM |
| Cc1cn2cc(NC(=O)c3ccc(N4CCN[C@H](C5CC5)C4)c4nccnc34)cc(F)c2n1 [Compound 253, 8-[(3R)-3-cyclopropylpiperazin-1-yl]-N-{8-fluoro-2-methylimidazo[1,2-a]pyridin-6-yl}quinoxaline-5-carboxamide] | 1 to 10 µM | < 0.1 µM | < 0.1 µM | < 0.1 µM | 1 to 10 µM | 1 to 10 µM |
| Cc1cn2cc(NC(=O)c3ccc(N4CCN5CCOC[C@@H]5C4)c4nccnc34)cc(F)c2n1 [Compound 255, (S)—N-(8-fluoro-2-methylimidazo[1,2-a]pyridin-6-yl)-8-(hexahydropyrazino[2,1-c][1,4]oxazin-8(1H)-yl)quinoxaline-5-carboxamide] | 0.1 to 1 µM | 0.1 to 1 µM | 0.1 to 1 µM | 0.1 to 1 µM | 0.1 to 1 µM | 0.1 to 1 µM |
| Cc1cn2cc(NC(=O)c3ccc(N4CCN5CCOC[C@H]5C4)c4nccnc34)cc(F)c2n1 [Compound 256, (R)—N-(8-fluoro-2-methylimidazo[1,2-a]pyridin-6-yl)-8-(hexahydropyrazino[2,1-c][1,4]oxazin-8(1H)-yl)quinoxaline-5-carboxamide] | 1 to 10 µM | 1 to 10 µM | 1 to 10 µM | 1 to 10 µM | 1 to 10 µM | 1 to 10 µM |
| Cc1cn2cc(NC(=O)c3ccc(N4CC(C)NC(C)C4)c4nc(C)c(C)nc34)cc(F)c2n1 (stereo not drawn) [Compound 257] | 1 to 10 µM | 0.1 to 1 µM | 1 to 10 µM | 1 to 10 µM | 1 to 10 µM | 1 to 10 µM |
| Cc1cn2cc(NC(=O)c3ccc(N4CCC(NC5CC5)CC4)c4nccnc34)cc(F)c2n1 [Compound 258, 8-(4-(cyclopropylamino)piperidin-1-yl)-N-(8-fluoro-2-methylimidazo[1,2-a]pyridin-6-yl)quinoxaline-5-carboxamide] | 0.1 to 1 µM | 0.1 to 1 µM | 0.1 to 1 µM | < 0.1 µM | 0.1 to 1 µM | 0.1 to 1 µM |
| Cc1cn2cc(NC(=O)c3ccc(N4CCC(NC5CC5)CC4)c4ccnnc34)cc(F)c2n1 [Compound 259, 5-[4-(cyclopropylamino)piperidin-1-yl]-N-{8-fluoro-2-methylimidazo[1,2-a]pyridin-6-yl} cinnoline-8-carboxamide] | 0.1 to 1 µM | < 0.1 µM | < 0.1 µM | < 0.1 µM | 0.1 to 1 µM | 0.1 to 1 µM |
| COc1nc2c(N3C[C@@H](C)N[C@@H](C)C3)ccc(C(=O)Nc3cc(F)c4nc(C)cn4c3)c2nc1C [Compound 260, 8-((3R,5S)-3,5-dimethylpiperazin-1-yl)-N-(8-fluoro-2-methylimidazo[1,2-a]pyridin-6-yl)-2-methoxy-3-methylquinoxaline-5-carboxamide; 2,2,2-trifluoroacetate] | 1 to 10 µM | 0.1 to 1 µM | 0.1 to 1 µM | < 0.1 µM | 0.1 to 1 µM | 1 to 10 µM |
| Cc1cn2cc(NC(=O)c3c(F)cc(N4C[C@@H](C)N[C@@H](C)C4)c4nccnc34)cc(F)c2n1 [Compound 261, cis-8-[(3R,5S)-3,5-dimethylpiperazin-1-yl]-6-fluoro-N-{8-fluoro-2-methylimidazo[1,2-a]pyridin-6-yl}quinoxaline-5-carboxamide] | 1 to 10 µM | < 0.1 µM | < 0.1 µM | < 0.1 µM | 1 to 10 µM | 1 to 10 µM |
